Measurements published in patent publication US10358449B2, “Xanthine derivative” (priority 2015, dated 2019).
Read-outs that look alike come from different tables or passages of the source. Marks after values point to notes of the source that are not given here.

What was measured:
[1] = biological target: humanized recombinant DPP-IV (Homo sapiens (Human), UniProt P27487); experiment: DPP-IV activity inhibition test in vitro (DPPIV-Glo luminescence); assay type: biochemical
Method: (1) DPP-IV Activity Inhibition Tests In Vitro
DPP-IV could hydrolyze Gly-Pro-Aminoluciferin at room temperature to generate Aminoluciferin, which could produce “glow type” luminescent signals in a luciferase reaction system provided by a DPPIV-Glo™ protease test kit, and the strength of the luminescent signals was in direct proportion to the enzyme activity of DPP-IV.
2.1 humanized recombinant DPP-IV: SIGMA product, article number D3446-10UG.
2.2 DPPIV-Glo™ protease detection kit: Promega product, article number G8351.
3.2 Diluting dipeptidyl peptidase IV (Sigma) to 0.2 ng/ml solution with 10 mM Tris-HCl (pH 8.0), adding the samples to be detected in, per well 25 μl. […] Experimental Results

[2] = biological target: humanized recombinant DPP8 (Homo sapiens (Human), UniProt Q6V1X1); experiment: Drug selectivity experiment in vitro, DPP8; assay type: biochemical
Sequence of humanized recombinant DPP8 (Q6V1X1 whole entry): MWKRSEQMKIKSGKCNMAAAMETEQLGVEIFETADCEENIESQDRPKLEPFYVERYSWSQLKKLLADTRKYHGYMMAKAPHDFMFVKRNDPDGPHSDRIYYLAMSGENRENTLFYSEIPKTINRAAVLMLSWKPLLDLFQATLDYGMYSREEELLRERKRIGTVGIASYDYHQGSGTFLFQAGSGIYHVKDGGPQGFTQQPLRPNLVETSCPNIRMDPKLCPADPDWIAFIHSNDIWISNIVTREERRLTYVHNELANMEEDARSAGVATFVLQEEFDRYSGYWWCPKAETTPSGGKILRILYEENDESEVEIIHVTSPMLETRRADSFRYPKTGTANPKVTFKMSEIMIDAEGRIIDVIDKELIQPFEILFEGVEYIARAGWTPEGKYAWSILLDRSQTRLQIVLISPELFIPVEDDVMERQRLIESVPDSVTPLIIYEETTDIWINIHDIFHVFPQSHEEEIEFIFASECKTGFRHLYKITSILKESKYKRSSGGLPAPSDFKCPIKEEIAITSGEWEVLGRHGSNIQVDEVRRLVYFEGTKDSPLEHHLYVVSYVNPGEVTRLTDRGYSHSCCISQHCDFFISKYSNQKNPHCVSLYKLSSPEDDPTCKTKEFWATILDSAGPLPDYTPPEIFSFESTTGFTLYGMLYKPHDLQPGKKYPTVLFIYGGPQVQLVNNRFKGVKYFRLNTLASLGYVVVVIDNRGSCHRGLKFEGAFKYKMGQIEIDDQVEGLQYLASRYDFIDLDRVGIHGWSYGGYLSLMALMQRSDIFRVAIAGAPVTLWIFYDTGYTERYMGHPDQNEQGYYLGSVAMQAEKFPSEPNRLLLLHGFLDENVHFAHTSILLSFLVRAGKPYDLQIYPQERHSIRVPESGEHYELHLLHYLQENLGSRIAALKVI

[3] = biological target: humanized recombinant DPP9 (Homo sapiens (Human), UniProt Q86TI2); experiment: Drug selectivity experiment in vitro, DPP9; assay type: biochemical
Sequence of humanized recombinant DPP9 (Q86TI2 whole entry): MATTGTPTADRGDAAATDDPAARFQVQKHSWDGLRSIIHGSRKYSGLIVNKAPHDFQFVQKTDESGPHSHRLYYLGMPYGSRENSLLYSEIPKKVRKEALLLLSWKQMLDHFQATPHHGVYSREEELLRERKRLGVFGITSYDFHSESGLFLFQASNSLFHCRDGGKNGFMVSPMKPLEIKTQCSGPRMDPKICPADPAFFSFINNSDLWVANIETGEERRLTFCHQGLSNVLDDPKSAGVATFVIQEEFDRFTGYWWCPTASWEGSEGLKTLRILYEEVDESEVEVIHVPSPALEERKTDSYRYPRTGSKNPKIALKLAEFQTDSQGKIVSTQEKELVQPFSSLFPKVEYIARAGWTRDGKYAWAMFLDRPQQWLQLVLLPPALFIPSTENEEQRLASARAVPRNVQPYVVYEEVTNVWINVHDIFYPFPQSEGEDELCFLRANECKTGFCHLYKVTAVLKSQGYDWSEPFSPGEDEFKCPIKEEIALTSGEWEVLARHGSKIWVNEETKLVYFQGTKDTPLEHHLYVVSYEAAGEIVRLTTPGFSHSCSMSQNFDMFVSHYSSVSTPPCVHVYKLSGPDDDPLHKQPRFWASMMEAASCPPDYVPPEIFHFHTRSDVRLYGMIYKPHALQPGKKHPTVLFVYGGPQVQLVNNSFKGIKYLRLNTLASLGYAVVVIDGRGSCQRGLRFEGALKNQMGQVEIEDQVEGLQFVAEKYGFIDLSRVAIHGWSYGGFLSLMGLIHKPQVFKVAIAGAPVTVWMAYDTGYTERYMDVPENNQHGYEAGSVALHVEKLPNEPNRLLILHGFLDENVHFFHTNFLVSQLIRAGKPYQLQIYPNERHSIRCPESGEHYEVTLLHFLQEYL

normal mice (C57BL/6J) = experiment: Oral glucose tolerance test of normal mice; assay type: in vivo, mouse; design: AUC0-120 min: unit not given beside the values
Method: (§1) 2. Experimental method: normal mice, obese mice and diabetic mice were used for studying glucose tolerance tests Experimental process of OGTT (Oral Glucose Tolerance Test): fasting for 6 hours before the test begins, 60 min after drug administration, glucose was administrated by gavage (drug concentration 0.6 mg/ml, administration volume 5 ml/kg) (2 g/kg glucose was administrated to diabetic mice; 2 g/kg glucose was administrated to obese mice; and 5 g/kg glucose was administrated to normal mice), blood glucose values at 0 min, 15 min, 30 min, 45 min, 60 min and 120 min are respectively determined after glucose administration, […]

[4] = test system: diabetic mice (B6.BKS(D)-Leprdb/JNju); experiment: Glucose tolerance test of diabetic mice (Table 5); assay type: in vivo, mouse; design: AUC0-120 min: unit not given beside the values
Method: as §1

hERG potassium channel = hERG potassium channel (Homo sapiens (Human), UniProt Q12809); experiment: hERG toxicity, manual patch clamp in CHO cells stably transfected with hERG; assay type: cell-based
Sequence of hERG potassium channel (Q12809 whole entry): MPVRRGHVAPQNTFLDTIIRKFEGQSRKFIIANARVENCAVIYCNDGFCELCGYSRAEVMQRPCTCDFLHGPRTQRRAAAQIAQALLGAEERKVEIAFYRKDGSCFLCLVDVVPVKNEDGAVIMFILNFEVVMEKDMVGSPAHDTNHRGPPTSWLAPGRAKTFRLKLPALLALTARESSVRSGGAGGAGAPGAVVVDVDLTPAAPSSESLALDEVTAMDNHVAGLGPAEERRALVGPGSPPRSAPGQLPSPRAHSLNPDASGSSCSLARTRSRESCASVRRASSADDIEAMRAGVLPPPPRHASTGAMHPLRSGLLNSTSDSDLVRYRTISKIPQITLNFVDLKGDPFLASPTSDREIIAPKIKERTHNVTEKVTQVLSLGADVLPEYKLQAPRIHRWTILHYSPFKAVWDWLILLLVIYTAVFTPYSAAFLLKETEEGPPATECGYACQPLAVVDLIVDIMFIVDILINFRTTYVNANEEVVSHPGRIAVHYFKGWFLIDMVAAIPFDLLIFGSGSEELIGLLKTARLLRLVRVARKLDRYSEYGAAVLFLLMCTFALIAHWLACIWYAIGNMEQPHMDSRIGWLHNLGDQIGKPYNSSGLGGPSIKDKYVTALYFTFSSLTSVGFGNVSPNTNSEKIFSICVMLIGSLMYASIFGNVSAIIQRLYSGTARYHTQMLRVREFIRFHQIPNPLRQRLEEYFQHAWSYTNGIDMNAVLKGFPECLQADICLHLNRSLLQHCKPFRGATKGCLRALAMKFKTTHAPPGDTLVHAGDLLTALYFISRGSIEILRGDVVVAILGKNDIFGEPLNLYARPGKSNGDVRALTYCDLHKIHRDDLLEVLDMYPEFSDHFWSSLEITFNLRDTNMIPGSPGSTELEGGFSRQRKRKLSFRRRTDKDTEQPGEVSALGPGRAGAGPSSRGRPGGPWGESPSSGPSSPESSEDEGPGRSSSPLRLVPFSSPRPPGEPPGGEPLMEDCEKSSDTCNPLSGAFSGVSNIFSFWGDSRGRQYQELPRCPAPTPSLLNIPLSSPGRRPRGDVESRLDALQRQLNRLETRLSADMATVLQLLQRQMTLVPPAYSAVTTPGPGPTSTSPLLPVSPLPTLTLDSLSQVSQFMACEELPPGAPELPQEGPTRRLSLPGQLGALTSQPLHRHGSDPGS
Description: 1. Test method: testing the effect of the compounds on hERG […] in stable CHO cell lines transfected hERG […] by manual patch clamp method, and then calculating IC50 value of the compounds to hERG. Conventional Patch-Clamp was a technology that has been disclosed, was the most important technical means for studying ion channels and was universally recognized as the “gold standard” for ion channel researches and was the most accurate method for measuring ion channel. It was applicable to study the action mechanism of the effect of compound and the ion channel, and also could be used for toxicity evaluation and structure optimization of candidate drugs in the process of new drugs. In cardiomyocytes, human Ether-a-go-go Related Gene (hERG) coded potassium channel mediates a delayed rectification potassium current (IKr), IKr inhibition was the most important mechanism leading to QT interval prolongation by drugs. hERG could be inhibited by compounds of diversified structures, due to its specific molecular structure. […] The effects of compounds on hERG could be tested and relevant IC50 could be determined by conventional patch-clamp, using CHO cell lines that had been stably transfected hERG potassium channel.

[5] = Pharmacokinetics experiments in CD-1 mice; assay type: in vivo, mouse; details: for concentration at 0.5 h: 0.500 h; for MRT last: read-out: MRT0-last; for concentration at 0.25 h: 0.250 h; for Plasma drug concentration (ng/ml): LLOQ 3 ng/ml
Method: Six healthy CD-1 mice of 7-10 weeks old were randomly separated into two groups. 2 mg/kg and 5 mg/kg TSL-0319 were administrated respectively by intravenous injection and by gavage (2 mg/ml for intravenous injection, made into transparent solution with solution of DMSO/PEG400/H2O=20/60/20; 5 mg/ml for gavage; made into transparent solution with solution of PEG400 (Tween80/H2O=40/10/50); fasting for 12 hours but free drinking before administration; blood was taken from the great saphenous vein or submaxillary veins by time points (time points for taking blood of intravenous injection: 0 h, 0.0833 h, 0.250 h, 0.500 h, 1.00 h, 2.00 h, 4.00 h, 8.00 h, 12.00 h and 24.00 h; time points for taking blood of gavage: 0 h, 0.250 h, 0.50 h, 1.00 h, 2.00 h, 4.00 h, 8.00 h, 12.00 h and 24.0 h) before and after administration, lower limit of quantitation, LLOQ was set at 3 ng/ml.

[6] = CD-1, mouse, plasma, oral, gavage 5 mg/kg, read-out: Plasma drug concentration
[7] = CD-1, mouse, plasma, po, gavage 5 mg/kg
[8] = CD-1, mouse, plasma, intravenous injection 2 mg/kg
[9] = CD-1, mouse, plasma, intravenous injection 2 mg/kg, read-out: Plasma drug concentration

Sequence of humanized recombinant DPP-IV (P27487 whole entry): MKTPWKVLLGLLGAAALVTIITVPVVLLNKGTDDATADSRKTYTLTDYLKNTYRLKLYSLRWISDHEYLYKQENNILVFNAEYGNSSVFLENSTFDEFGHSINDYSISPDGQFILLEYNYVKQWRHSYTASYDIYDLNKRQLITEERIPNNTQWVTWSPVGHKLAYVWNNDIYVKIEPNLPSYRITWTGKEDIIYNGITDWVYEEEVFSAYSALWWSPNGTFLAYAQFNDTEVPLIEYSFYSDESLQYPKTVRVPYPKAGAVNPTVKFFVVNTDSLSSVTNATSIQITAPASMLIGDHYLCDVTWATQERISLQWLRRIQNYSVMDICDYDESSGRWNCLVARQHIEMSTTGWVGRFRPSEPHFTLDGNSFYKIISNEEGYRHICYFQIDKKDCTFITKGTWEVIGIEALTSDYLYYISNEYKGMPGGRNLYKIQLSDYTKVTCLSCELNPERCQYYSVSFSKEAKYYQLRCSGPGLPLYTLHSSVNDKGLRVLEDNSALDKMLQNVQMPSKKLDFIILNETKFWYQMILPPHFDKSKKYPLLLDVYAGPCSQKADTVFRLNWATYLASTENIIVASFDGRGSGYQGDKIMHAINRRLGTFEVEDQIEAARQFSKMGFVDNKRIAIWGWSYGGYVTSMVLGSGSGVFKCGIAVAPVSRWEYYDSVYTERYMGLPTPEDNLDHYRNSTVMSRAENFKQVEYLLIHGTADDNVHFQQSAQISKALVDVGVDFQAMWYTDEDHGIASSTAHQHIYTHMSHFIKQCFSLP

- IC50 ([1]; DPP-IV, Table 1, read-out: IC50): 0.08 nM
- IC50 ([1]; Table 2, read-out: DPP4 IC50): 0.08 nM
- DPP-IV activity compared with linagliptin ([1]; in words): better activity than linagliptin
- IC50 [2]: > 100 µM
- Selectivity (DPP8 column) ([2]; DPP8 versus DPP4): > 1250000
- inhibition effect to DPP8 ([2]; in words): no inhibition effect
- IC50 [3]: > 100 µM
- Selectivity (DPP9 column) ([3]; DPP9 versus DPP4): > 1250000
- inhibition effect to DPP9 ([3]; in words): no inhibition effect
- Cmax ([5]; CD-1, mouse, blood, oral, dosage 5 mg/kg, read-out: Cmax in mice): 200 to 500 nM
- concentration at 0.5 h [5, 6]: 123 ± 30.2 ng/mL
- concentration at 1 h [5, 6]: 183 ± 19.1 ng/mL
- concentration at 2 h [5, 6]: 211 ± 83 ng/mL
- concentration at 4 h [5, 6]: 145 ± 40.9 ng/mL
- concentration at 8 h ([5]; CD-1, mouse, plasma, oral, gavage 5 mg/kg, 8.00 h, read-out: Plasma drug concentration): 8.03 ± 3.71 ng/mL
- AUC(0-inf) [5, 7]: 858 ± 185 ng·h/mL
- AUC(0-t) [5, 7]: 844 ± 181 ng·h/mL
- Tmax [5, 7]: 1.33 ± 0.577 h
- half-life [5, 7]: 1.37 ± 0.317 h
- MRT inf ([5]; CD-1, mouse, plasma, po, gavage 5 mg/kg, read-out: MRT0-inf): 3 ± 0.111 h
- MRT last [5, 7]: 2.87 ± 0.0589 h
- AUC(0-inf) [5, 8]: 567 ± 56.1 ng·h/mL
- AUC(0-t) [5, 8]: 555 ± 54.7 ng·h/mL
- clearance [5, 8]: 59.1 ± 5.63 mL/min/kg
- concentration at 0.25 h [5, 9]: 529 ± 93.4 ng/mL
- concentration at 0.5 h [5, 9]: 344 ± 32.7 ng/mL
- concentration at 1 h [5, 9]: 161 ± 21.2 ng/mL
- concentration at 2 h [5, 9]: 47.5 ± 13.6 ng/mL
- concentration at 4 h [5, 9]: 11.9 ± 2.24 ng/mL
- MRT ([5]; CD-1, mouse, plasma, intravenous injection 2 mg/kg, read-out: MRT0-int): 0.953 ± 0.123 h
- MRT last [5, 8]: 0.836 ± 0.0919 h
- Vd ([5]; CD-1, mouse, plasma, intravenous injection 2 mg/kg, read-out: Vdss): 3.41 ± 0.745 L/kg
- Plasma drug concentration (ng/ml) ([5]; gavage 5 mg/kg, 12.00 h): BQL
- Plasma drug concentration (ng/ml) ([5]; gavage 5 mg/kg, 24.00 h): BQL
- Plasma drug concentration (ng/ml) ([5]; intravenous injection 2 mg/kg, 8.00 h): BQL
- Plasma drug concentration (ng/ml) ([5]; intravenous injection 2 mg/kg, 12.00 h): BQL
- Plasma drug concentration (ng/ml) ([5]; intravenous injection 2 mg/kg, 24.00 h): BQL
- bioavailability ([5]; mouse, plasma, oral, gavage 5 mg/kg versus intravenous 2 mg/kg, CD-1 mice): 60.5%
- concentration at 0.25 h ([5]; mouse, plasma, oral, gavage 5 mg/kg, CD-1 mice, read-out: Plasma drug concentration): 48 ± 27.9 ng/mL
- Cmax ([5]; mouse, plasma, po, gavage 5 mg/kg, CD-1 mice, read-out: Cmax): 223 ± 68.1 ng/mL
- half-life ([5]; mouse, plasma, intravenous injection 2 mg/kg, CD-1 mice): 1.09 ± 0.623 h
- concentration at 0.5 min ([5]; mouse, plasma, intravenous injection 2 mg/kg, CD-1 mice, 0.5 min, read-out: Plasma drug concentration): 759 ± 133 ng/mL
Compound: CC#CCn1c(N2CCC[C@@H](N)C2)nc2c1c(=O)n(Cc1nccnc1C#N)c(=O)n2C [Compound I-3, 1-[(3-cyano-pyrazine-2-yl)methyl]-3-methyl-7-(2-butyne-1-yl)-8-[(R)-3-amino-piperidine-1-yl]-xanthine]
- Blood glucose concentration 0 min (normal mice (C57BL/6J); normal mice C57BL/6J, drug at -60 min (0.6 mg/ml, 5 ml/kg), 5 g/kg glucose at 0 min): 8.88* mmol/L
- hypoglycemic effect (normal mice (C57BL/6J); normal mice, in words): good hypoglycemic effect
- Blood glucose concentration 15 min (normal mice (C57BL/6J); normal mice, 15 min after glucose): 14.6*** mmol/L
- Blood glucose concentration 30 min (normal mice (C57BL/6J); normal mice, 30 min after glucose): 11.0*** mmol/L
- Blood glucose concentration 45 min (normal mice (C57BL/6J); normal mice, 45 min after glucose): 9.23*** mmol/L
- Blood glucose concentration 60 min (normal mice (C57BL/6J); normal mice, 60 min after glucose): 9.82*** mmol/L
- Blood glucose concentration 120 min (normal mice (C57BL/6J); normal mice, 120 min after glucose): 7.58 mmol/L
- AUC0-120 min (normal mice (C57BL/6J); normal mice, blood glucose AUC): 1185***
- hypoglycemic effect ([4]; Table 5 mice (diabetic), in words): good hypoglycemic effect
- Blood glucose concentration 0 min ([4]; diabetic mice B6.BKS(D)-Leprdb/JNju, drug at -60 min (0.6 mg/ml, 5 ml/kg), 2 g/kg glucose at 0 min): 11.84 mmol/L
- Blood glucose concentration 15 min ([4]; diabetic mice, 15 min after glucose): 32.23 mmol/L
- Blood glucose concentration 30 min ([4]; diabetic mice, 30 min after glucose): 22.80* mmol/L
- Blood glucose concentration 45 min ([4]; diabetic mice, 45 min after glucose): 15.70*** mmol/L
- Blood glucose concentration 60 min ([4]; diabetic mice, 60 min after glucose): 13.80*** mmol/L
- Blood glucose concentration 120 min ([4]; diabetic mice, 120 min after glucose): 8.75** mmol/L
- AUC0-120 min ([4]; diabetic mice, blood glucose AUC): 1930**
- inhibition rate to hERG (hERG potassium channel; 1 μM concentration): 0%
- IC50 (hERG potassium channel; manual patch clamp, CHO cells): 79.8 µM
